This data set can be described thus: deoxyribose (dR) degradation test, hydroxyl radical scavenging. The data set is classed as biochemical. The protocol:
Trans-UCA, cis-UCA, related imidazoles and non-imidazole compounds were tested with regard to their ability to compete with deoxyribose to scavenge hydroxyl radicals. On exposure to hydroxyl radicals deoxyribose is degraded into malondialdehyde, which reacts with thiobarbituric acid to form a pink chromogen. Powerful hydroxyl-radical scavengers will compete with deoxyribose, resulting in a reduced amount of malondialdehyde. Ten compounds, UCA, UCA analogues, alanine and uric acid (FIG. 1) were tested on their ability to scavenge hydroxyl radicals.
Method: the deoxyribose (dR) degradation test. The test was analogous to an earlier described method. Briefly, the reactions were performed in 5 mL screw cap glass tubes in a final volume of 1.0 mL sodium phosphate buffer (50 mM; pH 7.2), containing 3.0 mM 2 deoxy-D-ribose, 0.5 mM hydrogen peroxide and one of the test compounds at graded concentrations. The reaction was started by the addition of premixed disodium EDTA and ferrous iron solution (final concentrations 0.5 mM and 0.2 mM, respectively). The mixture was left for 15 minutes at room temperature. After addition of 1.0 mL 1% thiobarbituric acid in 50 mM NaOH and 0.75 mL 2.8% trichloroacetic acid, the tubes were heated for 20 minutes in a boiling water bath. The pink color was read at 532 nm and reciprocal absorption values were plotted against the concentration of the test compound after subtraction of appropriate blanks. A series of six duplicate determinations from test compound dilutions was employed to construct a graph slope for the calculation of a rate constant value. The mean, SD, number of rate constants and the percentage of inhibition of deoxyribose degradation, calculated for each test compound, are listed. Results. All second-order rate constants for reaction with hydroxyl radicals and, in addition, the percentage inhibition of deoxyribose degradation with equimolar concentrations (3 mM) of scavenger are summarized in Table 1. Trans-UCA and cis-UCA are substantially more powerful in scavenging hydroxyl radicals (8.0 and 7.1×10^3 M^−1,s^−1, respectively), than the other 4-(5-)-substituted imidazoles, including L-histidine (2.6×10^2 M^−1,s^−1). L-histidine, the precursor of UCA, was included as a known moderate scavenger with structural similarities to UCA. L-alanine was used as a known poor scavenger. Trans-FAA was tested as a non-imidazole acrylic acid derivative, having a furan ring instead.
FIG. 2. A determination of the second order rate constants of trans-UCA and cis-UCA with hydroxyl radicals. The rate constant was derived from the slope of the line (k=slope×kdR×[dR]×A0), where A0 is the absorbance, measured in the absence of hydroxyl radical scavenger. KdR was taken as 3.1×10^9 M^−1,s^−1, derived from pulse radiolysis studies, and [dR]=3 mM. […] The other scavengers were studied similarly.

Structures are written as SMILES.

As to `O=C(O)/C=C/c1cnc[nH]1` [trans-Urocanic acid, Trans-urocanic acid], the “INHIBITION of DEOXYRIBOSE DEGRADATION” value ([SCAVENGER] = [DEOXYRIBOSE] = 3 Mm) turned out to be 67%. Where the note is “mean of n slopes, sodium phosphate buffer pH 7.2”, the “SECOND ORDER RATE CONSTANT for reaction with hydroxyl radicals” value was 8e+09 M⁻¹ s⁻¹. Besides, the “second order rate constant in the particular set of FIG. 2” value (single set of FIG. 2, kdR 3.1×10^9, [dR]=3 mM) is recorded as 8.49 ×10^9 M^−1,s^−1.

Values taken from US7056938B1, “Method for scavenging radicals with urocanic acid, derivatives and analogues” (Academisch Ziekenhuis Bij De Univ., priority 1999, dated 2006).
